Among the data in US20260159474A1, “Aminoindane Compounds and Compositions and Methods of Their Therapeutic Use” (Solvonis Therapeutics Ireland Holdings Limited, priority 2021, published 2026) are IC50 values, retold here.

SMILES strings stand for the structures. Read-outs that look alike come from different tables or passages of the source.

One data set addresses T1, CYP2B6 (Homo sapiens, UniProt P20813).
T1 construct: purchased Life Technologies P3028; host or cells: Baculosomes
T1 sequence (P20813 1-491): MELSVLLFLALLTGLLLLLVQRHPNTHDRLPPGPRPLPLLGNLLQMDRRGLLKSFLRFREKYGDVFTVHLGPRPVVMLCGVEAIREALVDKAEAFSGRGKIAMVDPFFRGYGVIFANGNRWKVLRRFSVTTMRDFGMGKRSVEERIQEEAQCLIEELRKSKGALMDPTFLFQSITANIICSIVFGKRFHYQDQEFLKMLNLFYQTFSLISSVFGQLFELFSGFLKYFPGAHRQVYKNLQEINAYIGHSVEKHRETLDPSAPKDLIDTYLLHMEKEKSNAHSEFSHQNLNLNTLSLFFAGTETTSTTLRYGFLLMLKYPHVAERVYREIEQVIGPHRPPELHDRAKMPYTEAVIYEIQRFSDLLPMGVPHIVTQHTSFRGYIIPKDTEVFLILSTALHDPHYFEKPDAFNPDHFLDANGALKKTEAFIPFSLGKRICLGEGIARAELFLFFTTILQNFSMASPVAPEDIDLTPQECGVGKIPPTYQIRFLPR
Nature of the data set: CYP450 inhibition, fluorescent probe substrate. The data set is classed as in vitro ADME. Here is the method:
(§1) Methods: Recombinant human CYP450 isoenzymes were used to metabolize pro-fluorescent probe substrates to fluorescent products. IC50 values determined from the effect of test compounds on the metabolism of these probe substrates were then used to determine inhibitory potency against CYP450 isoforms. The chemical reagents included:
(§2) The test system was based on a three-step procedure with a “mix and read” format, where reaction and reading were performed at 37° C. The assays described herein measure in vitro inhibitory effects (pIC50) of compounds on the human P450 isoforms (1A2, 2B6, 2C8, 2C9, 2C19, 2D6, 3A4) expressed in recombinant microsomes. Pro-fluorescent probe substrates were metabolized to fluorescent products by the enzymes. Fluorescence was measured in kinetic mode (1 read/minutes for 10 minutes), and the fluorescence rate was calculated.
(§3) Inhibition of the fluorescent signal resulting from P450 activation indicated inhibitory activity and facilitated calculation of the compound pIC50. A quality check was included in each compound plate, wherein the signal window was monitored by performing Z′ calculations ([…] ) and the antagonist potency of internal standards was within the pIC50±2SD range. Concentration response curves (CRCs) of compounds were run on two different test occasions (n 2) by preparing serial dilutions from the same compound stock solution.
(§4) To prepare the compound plate, test compounds serial dilutions 1 to 3 were performed from a 10 mM stock solution in DMSO by Biomek FX to generate 10 point CRC with the highest concentrations in columns 3 and 13.
(§5) 100% DMSO was placed in columns 1 and 2 and used for assay low controls. CYP inhibitor (10 mM miconazole solution in DMSO) was placed in columns 23 and 24 and served as an assay high controls. 1 μL copy plates were then stamped into V-bottom drug plates at a concentration that is 200 fold the final assay concentration. The copy plates were diluted prior to the experiment with assay buffer to reach 4 times the final assay concentration (2% w/v DMSO).
(§6) A reference compound (e.g., miconazole) was included in each compound plate in row A, column 3 and 13. The reference compound was diluted and stamped together with test compounds. The final concentrations of the 10 point CRCs of test compounds in the assay plate were 5.00E-05; 1.67E-05; 5.56E-06; 1.85E-06; 6.17E-07; 2.06E-07; 6.86E-08; 2.29E-08; 7.62E-09 and 2.54E-09, respectively. All solutions were prepared immediately before the assay.
(§7) The CYP3A4 and CYP2C8 were assayed using the Vivid CYP3A4 Baculosomes, CYP2C8 Baculosomes and Vivid DBOMF Substrate (Life Technologies, cat. P2377, PV6138 and P2974 respectively), while 2B6 is tested by Vivid CYP2B6 Baculosomes and Vivid BOMCC Substrate (Life Technologies, cat. P3028 and P2975). Test compounds were prepared as specified above.
(§8) The assay plate was prepared by preparing pre-mix by diluting P450 Baculosomes Plus Reagent and Vivid Regeneration System in 1× Vivid CYP450 Reaction Buffer (Potassium Phosphate Buffer, 100 mM, pH 8.0). Briefly, 8 μL/ml of P450 Baculosomes Plus Reagent and 16 μL/ml of Vivid Regeneration System were added to achieve the appropriate final concentrations and then mixed by inversion. 30 μL of pre-mix were dispensed into each well of a black, 384-well plate.
(§9) Next, 10 μL/well from the compound plate was added and incubated for 10 minutes at 37° C. on a plate shaker, while a mixture of Vivid Substrate and Vivid NADP+ in Vivid CYP450 Reaction Buffer was prepared. The reaction was initiated by adding 10 μL/well of the Vivid Substrate and NADP+ mixture, before transferring the plate into the fluorescent plate reader (immediately, within 2 minutes), and fluorescence was monitored every minute for 10 minutes according to the specific protocol.
(§10) Regarding data analysis, inhibition is expressed as a percentage. […] Curve fitting and pIC50 estimations are carried out using a four-parameter logistic model in Morphit.

For another data set, the target named is T2, CYP2C8 (Homo sapiens, UniProt P10632).
T2 construct: purchased Life Technologies PV6138; host or cells: Baculosomes
T2 sequence (P10632 1-490): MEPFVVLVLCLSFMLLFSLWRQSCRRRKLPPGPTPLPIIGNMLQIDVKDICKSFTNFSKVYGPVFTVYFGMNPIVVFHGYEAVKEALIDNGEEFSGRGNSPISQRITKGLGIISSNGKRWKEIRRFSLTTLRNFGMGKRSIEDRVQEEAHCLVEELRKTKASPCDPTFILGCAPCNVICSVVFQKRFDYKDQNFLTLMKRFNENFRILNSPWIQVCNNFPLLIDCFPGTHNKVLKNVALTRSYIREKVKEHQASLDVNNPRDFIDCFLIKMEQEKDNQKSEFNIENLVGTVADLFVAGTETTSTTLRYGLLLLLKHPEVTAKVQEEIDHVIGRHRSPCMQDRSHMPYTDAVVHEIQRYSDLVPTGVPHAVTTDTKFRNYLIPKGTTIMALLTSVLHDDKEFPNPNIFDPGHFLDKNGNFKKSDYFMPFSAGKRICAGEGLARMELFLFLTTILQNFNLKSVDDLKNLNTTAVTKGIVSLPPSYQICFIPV
Nature of the data set: CYP450 inhibition, fluorescent probe substrate. The data set is classed as in vitro ADME. Here is the method:
as §1, §2, §3, §4, §5, §6, §7, §8, §9, §10

Where [1] appears, read: recombinant human isoenzyme, n=2, read-out: Inhibition of CYP2B6, IC50.
Where [2] appears, read: recombinant human isoenzyme, n=2, read-out: Inhibition of CYP2C8, IC50.

For `COc1ccc2c(c1)CC(N)C2` (stereo not drawn) [MEAI, 5-methoxy-2-aminoindane], the IC50 at CYP2B6 and against CYP2C8 was above 50 µM throughout.

As to `COC(=O)COc1ccc2c(c1)CC(N)C2` (stereo not drawn) [CMP-402], the IC50 on CYP2B6 (setting [1]) and at CYP2C8 (setting [2]) was above 50 µM throughout.

For `CNC(C)Cc1ccc2c(c1)OCO2` (stereo not drawn) [MDMA], the IC50 on CYP2B6 (setting [1]) and at CYP2C8 (setting [2]) was above 50 µM in each case.

As to `COC(=O)c1cc2c(cc1OC)CC(N)C2` (stereo not drawn) [CMP-401], the concentration for half-maximal inhibition (IC50) at CYP2B6 (setting [1]) and on CYP2C8 (setting [2]) was above 50 µM throughout.

As to `COc1cc2c(cc1C)CC(N)C2` (stereo not drawn) [MMAI, 5-methoxy-6-methyl-2-aminoindane], the half-maximal inhibitory concentration (IC50) against CYP2B6 and at CYP2C8 was above 50 µM in each case.

Regarding `COC(=O)c1ccc2c(c1)CC(N)C2` (stereo not drawn) [CMP-405, 2-aminoindane-5-methylcarboxylate], the IC50 at CYP2B6 (setting [1]) and at CYP2C8 (setting [2]) was above 50 µM each time.
